Measurements taken from publication PMC9127750, “Structure-based design of CDC42 effector interaction inhibitors for the treatment of cancer” (Cell reports, 2022).
Several values for one entry are separate records, joined by “and”; a condition that tells them apart may be missing. Identical values can stand only once.

System: WM3248 melanoma cells, 486 antibodies
Assay: Reverse phase protein arrays (RPPA);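 as to CREB pS133.R.C RPPA level: ratio of treated to vehicle (0 µM) normalized linear protein signal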;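 as to Cyclin.B1.R.V RPPA level: ratio of treated to vehicle (0 µM) normalized linear protein signal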;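 as to Cyclin.E1.R.V RPPA level: ratio of treated to vehicle (0 µM) normalized linear protein signal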;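 as to DDB.1.R.V RPPA level: ratio of treated to vehicle (0 µM) normalized linear protein signal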
Assay type: cell-based, Human
Conditions: 10 uM
Excerpt: Pellets were snap frozen in liquid nitrogen and shipped to MD Anderson Cancer Center core RPPA facility for RPPA analysis (Table S5). Three biological replicates for each sample were generated.
Nomenclatures on the RPPA heatmaps: name_of_antibody.species_of_antibody.status_of_antibody. V - antibody validated; C - validation of antibody in progress; Q - antibody nonspecific; E – under evaluation; antibodies raised in M - mouse, G - goat, R - rabbit, or T - rat.

## CN(C)c1cccc(Nc2cc(-c3ccccc3)nc(C3CCNCC3)n2)c1 [ARN22089, N1,N1-dimethyl-N3-(6-phenyl-2-(piperidin-4-yl)pyrimidin-4-yl)benzene-1,3-diamine]
replicates
  CENP.A.R.V RPPA level: 1.151 and 1.005 and 0.894
  CHD1L.R.V RPPA level: 1.053 and 0.975
  CIITA.R.C RPPA level: 0.943
  COG3.R.V RPPA level: 1.004 and 1.123 and 1.059
  CRABP1.R.C RPPA level: 1.020 and 1.132 and 0.998
  CRABP2.R.V RPPA level: 1.116 and 1.191 and 0.898
  CREB_pS133.R.C RPPA level: 1.215 and 1.129 and 1.046
  CSK.R.C RPPA level: 1.016 and 1.050
  Calnexin.R.V RPPA level: 1.054 and 1.062 and 1.021
  Caspase.3.cleaved.R.C RPPA level: 0.914 and 0.955 and 0.964
  Caspase.7.cleaved..R.C RPPA level: 0.854 and 1.203 and 0.935
  Caspase.8.M.Q RPPA level: 0.939 and 0.985 and 0.948
  Caspase.8.cleaved.R.C RPPA level: 1.012 and 1.005
  Caveolin.1.R.V RPPA level: 0.511 and 0.968 and 1.344
  Cdc6.R.V RPPA level: 1.149 and 0.959 and 0.806
  Cdc42.R.C RPPA level: 0.879 and 1.031 and 1.047
  Chk1.M.C RPPA level: 0.982
  Chk1_pS296.R.V RPPA level: 1.083 and 1.109 and 1.035
  Chk1_pS345.R.C RPPA level: 1.079 and 0.892
  Chk2.M.V RPPA level: 1.081 and 1.018 and 0.980
  Chk2_pT68.R.C RPPA level: 1.106 and 0.986
  Claudin.7.R.V RPPA level: 1.024 and 1.518
  Collagen.VI.R.V RPPA level: 1.360 and 0.732 and 0.984
  Complex.II.Subunit.M.V RPPA level: 0.942 and 1.064
  Connexin.43.R.C RPPA level: 1.028 and 1.053 and 1.013
  Coup.TFII.R.C RPPA level: 0.805 and 0.957 and 0.905
  Cox2.R.C RPPA level: 0.926
  Cox.IV.R.V RPPA level: 0.954 and 1.028 and 0.879
  Creb.R.C RPPA level: 0.985 and 0.987 and 0.986
  CtIP.R.V RPPA level: 0.811 and 0.959 and 1.049
  Cyclin.B1.R.V RPPA level: 1.215 and 0.558 and 1.046
  Cyclin.D1.R.C RPPA level: 1.058 and 1.030
  Cyclin.D3.M.V RPPA level: 1.147 and 1.027 and 0.999
  Cyclin.E1.R.V RPPA level: 1.052 and 1.061 and 0.904
  D.a.Tubulin.R.V RPPA level: 0.843 and 1.062 and 1.022
  DAPK1_pS308.M.C RPPA level: 1.219 and 0.875
  DAPK2.R.C RPPA level: 0.896 and 0.971
  DDB.1.R.V RPPA level: 0.816 and 0.798 and 0.956
  DDR1.R.V RPPA level: 1.205 and 0.959 and 0.921
  DDR1_pY513.R.C RPPA level: 1.134 and 1.079 and 0.941
  DJ1.R.V RPPA level: 0.977 and 1.030
  DM.Histone.H3.R.V RPPA level: 0.923 and 0.956 and 0.905
  DM.K9.Histone.H3.M.V RPPA level: 1.060 and 1.027
  DNA.Ligase.IV.R.C RPPA level: 0.876 and 1.063
  DNA_POLG.R.V RPPA level: 1.161 and 1.030 and 0.850
  c.Jun_pS73.R.V RPPA level: 0.892 and 1.231 and 0.915
  c.Kit.R.V RPPA level: 1.223 and 0.923 and 0.946
  c.Met_pY1234_Y1235.R.V RPPA level: 0.927 and 0.979
  c.Myc.R.C RPPA level: 0.990 and 1.949 and 1.062
  cGAS.R.V RPPA level: 1.123 and 1.204 and 1.015
  cdc2_pY15.R.C RPPA level: 1.056 and 0.933
  cdc25C.R.V RPPA level: 0.773 and 0.805 and 1.120
Single replicates
  RPPA MYH11.R.C: 1.100 and 1.584
  RPPA Myosin.IIa.R.C: 0.877 and 0.781 and 1.164
  RPPA Myosin.IIa_pS1943.R.V: 0.954 and 0.844 and 1.268
  RPPA Myt1.R.C: 0.886 and 0.984 and 1.096
  RPPA N.Cadherin.R.V: 1.097 and 1.063 and 1.030
  RPPA N.Ras.M.V: 0.953 and 0.958 and 1.062
  RPPA NAPSIN.A.R.C: 0.999 and 1.048
  RPPA NDRG1_pT346.R.V: 0.798 and 1.051 and 1.195
  RPPA NDUFB4.R.V: 1.112 and 1.008 and 0.987
  RPPA NRF2.R.C: 1.131 and 0.925 and 0.932
  RPPA Notch1.R.V: 1.065 and 1.124 and 1.005
  RPPA Notch1.cleaved.R.V: 0.792 and 0.886 and 1.098
  RPPA Notch3.R.C: 1.065 and 1.230 and 1.000
  RPPA Oct.4.R.C: 0.909
  RPPA P.Cadherin.R.C: 1.001 and 0.968
  RPPA PAI.1.M.V: 0.919 and 0.946
  RPPA PAICS.R.C: 0.926 and 0.836 and 0.997
  RPPA PAK1.R.V: 0.749 and 1.057 and 1.078
  RPPA PAK4.R.V: 1.101 and 1.108 and 0.979
  RPPA PAK_pS474_S602_S560.R.V: 1.125 and 1.130 and 1.000
  RPPA PAK_pT423_T402.R.C: 1.141 and 0.908
  RPPA PAR.R.C: 0.306 and 0.831 and 0.304
  RPPA PARG.R.C: 0.976 and 1.013 and 0.921
  RPPA PARP.R.V: 1.079 and 0.890 and 1.083
  RPPA PAX6.R.V: 0.992 and 1.020 and 0.997
  RPPA PAX8.R.C: 1.133 and 1.022 and 0.978
  RPPA PCNA.M.C: 0.928 and 1.013 and 1.020
  RPPA PD.1.R.V: 1.076 and 1.064 and 1.035
  RPPA PD.L1.R.C: 0.845 and 1.047
  RPPA PDH.M.V: 1.032 and 1.047 and 1.014
